Assays:
Experiment in all cases: cell viability relative to DMSO (100%) and bortezomib (0%) controls; higher = more viable / less sensitive
Settings in all cases: 72 h
[1] = system: HAP1 HDAC1 KO + HDAC1 H141A transgene
Method: (§1)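 HAP1 cells (wildtype, HDAC1/2/3 catalytically inactive H>A mutant lines in wildtype or knockout background, HDAC3 KO, or wildtype pre-treated 6 h with 1 uM MS-275 or JQ12) were seeded onto compound-containing 384-well plates with an 8-point 1:3 dose series. ATP was read by CellTiter-Glo after 72 h. Viability is normalised to plate DMSO wells (100%) and bortezomib positive-control wells (0%) after outlier removal. Duplicate screen.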

[2] = system: HAP1 HDAC2 KO + HDAC2 H142A transgene
Method: as §1

[3] = system: HAP1 HDAC3 KO + HDAC3 H135A transgene
Method: as §1

HAP1 HDAC3 KO = system: HAP1 HDAC3 KO
Method: as §1

[4] = system: HAP1 WT + HDAC1 H141A transgene
Method: as §1

[5] = system: HAP1 WT + HDAC2 H142A transgene
Method: as §1

[6] = system: HAP1 WT + HDAC3 H135A transgene
Method: as §1

[7] = system: HAP1 wildtype + JQ12 1 uM (6 h pretreatment)
Method: as §1

[8] = system: HAP1 wildtype + MS-275 1 uM (6 h pretreatment)
Method: as §1

HAP1 wildtype = system: HAP1 wildtype
Method: as §1

Cn1cc(-c2ccc(S(=O)(=O)n3ccc(/C=C/C(=O)Nc4ccccc4N)c3)cc2)cn1 [4SC-202]
cell viability [%]
Settings	HAP1 HDAC3 KO	HAP1 wildtype	[1]	[2]	[3]	[4]	[5]	[6]	[7]	[8]
0.0123 µM	120	105	137	125	130	125	141	140	123	168
0.037 µM	95.7	88.7	106	108	85.68	85.5	78.14	89.7	113	112
0.111111111 µM	127	120	109	157	109	110	135	128	133	121
0.333333333 µM	122.3	98.9	111	93.36	104	117	117	133	98.5	123
1 µM	11.2	22.3	7.79	82.3	-3.64	-2.58	-0.0563	6.41	10.9	3.53
3 µM	-10.7	-0.806	-53.5	-4.75	-11	-21.1	-10.7	-13.8	-3.08	-1.84
9 µM	-10.9	-6.67	-23.1	-2.31	-9.81	-15.7	-11.2	-10.1	-6.3	-6.4
27 µM	-5.87	2.64	14.2	-4.84	-4.35	-7.2	-5.99	-6.44	-3.68	0.166

COc1cc(Nc2ncc3c(n2)-c2ccc(Cl)cc2C(c2c(F)cccc2OC)=NC3)ccc1C(=O)O [Alisertib]
cell viability [%]
Settings	HAP1 HDAC3 KO	HAP1 wildtype	[1]	[2]	[3]	[4]	[5]	[6]	[7]	[8]
0.00617 µM	94.9	103	95.2	103	103	101	86.2	92.9	79.6	107
0.0185 µM	131	136	122	92.1	121	95.7	115	103	100	128
0.0556 µM	117	100	109	103	112	95.2	99.5	123	95.3	108
0.166666667 µM	70	110	52.1	31.8	70.2	71.2	62.6	147	34.2	43.2
0.5 µM	111	96.5	53.3	51	79.4	37.1	49.8	105	51.9	72.44
1.5 µM	114	83.2	38.4	54.5	82.3	15.1	21.9	101	51.7	61.6
4.5 µM	103	74.2	33.1	36.2	71.6	22.1	17.5	90.6	54.4	53.2
13.5 µM	116	73.4	19.6	21.8	89	2.6	12.7	108	52	46.8

CNC(=O)c1ccccc1Sc1ccc2c(/C=C/c3ccccn3)n[nH]c2c1 [Axitinib]
cell viability [%]
Settings	HAP1 HDAC3 KO	HAP1 wildtype	[1]	[2]	[3]	[4]	[5]	[6]	[7]	[8]
0.0123 µM	120	119	112	113	121	105	130	114	106	114
0.037 µM	99.1	95.8	94.3	94	87	90.6	82.1	90.2	76.9	92.3
0.111111111 µM	87.1	121	93	86.6	94	93.5	88.7	96.9	82.1	93.5
0.333333333 µM	102	102	84.5	107	101	94.8	101	121	109	101
1 µM	172	115	155	137	129	121	140	147	102	113
3 µM	48.9	72	54	23.4	34.8	21.8	46.4	88.11	57.83	67.8
9 µM	79.4	62	26.6	-0.112	36.3	5.34	16.3	101	48.6	52.5
27 µM	50.5	92.3	36	27.5	50.1	25.9	46.8	102	72.2	65.8

Nc1ncn([C@H]2C[C@H](O)[C@@H](CO)O2)c(=O)n1 [decitabine]
cell viability [%]
Settings	HAP1 HDAC3 KO	HAP1 wildtype	[1]	[2]	[3]	[4]	[5]	[6]	[7]	[8]
0.0309 µM	96.5	104	106	105.4	100	95.3	102	105	92.9	107
0.0926 µM	103	96.6	117	104	111	96.2	109	117	98	82.5
0.277777778 µM	125	110	93.4	89.47	115	68.1	80.5	116	72.8	71.3
0.833333333 µM	155	141	51.5	37.5	148	27.2	44.3	153	50.9	40.43
2.5 µM	144	115	24.3	10.8	148	-11.5	5.61	119.46	15.9	9.68
7.5 µM	112	60.8	0.764	5.27	96.2	0.523	4.31	49.5	1.97	9.13
22.5 µM	123	50.1	5.07	-5.41	114	-11.1	0.159	58.5	3.44	2.79
67.5 µM	147	47.2	19.6	9.97	108	1.73	7.07	61.2	1.41	10.8

Reference: the supplement of paper PMC9436093
